Measurements: PubChem BioAssay (NCI)
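Method: 48-hour compound exposure of cells in 96-well plates, five concentrations, linear interpolation of endpoints. GI50: concentration for 50% inhibition of growth. TGI is the concentration that stops growth completely.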

What was measured:
Experiment in all cases: NCI tumour cell line growth inhibition, 48 h
BT-549 breast = system: BT-549 breast
LOX IMVI melanoma = system: LOX IMVI melanoma
MALME-3M melanoma = system: MALME-3M melanoma
NCI-H522 lung = system: NCI-H522 lung
OVCAR-3 ovarian = system: OVCAR-3 ovarian
OVCAR-5 ovarian = system: OVCAR-5 ovarian
SK-MEL-28 melanoma = system: SK-MEL-28 melanoma
SNB-75 CNS = system: SNB-75 CNS
SR leukemia = system: SR leukemia
UACC-257 melanoma = system: UACC-257 melanoma

Structure (SMILES): Cc1cc(C(=O)O)c(C)n1-c1cccc(C(=O)O)c1
- GI50 (BT-549 breast): > 100 µM
- TGI (BT-549 breast): > 100 µM
- GI50 (LOX IMVI melanoma): > 100 µM
- TGI (LOX IMVI melanoma): > 100 µM
- GI50 (MALME-3M melanoma): > 100 µM
- TGI (MALME-3M melanoma): > 100 µM
- GI50 (NCI-H522 lung): > 100 µM
- TGI (NCI-H522 lung): > 100 µM
- GI50 (OVCAR-3 ovarian): > 100 µM
- TGI (OVCAR-3 ovarian): > 100 µM
- GI50 (OVCAR-5 ovarian): > 100 µM
- TGI (OVCAR-5 ovarian): > 100 µM
- GI50 (SK-MEL-28 melanoma): > 100 µM
- TGI (SK-MEL-28 melanoma): > 100 µM
- GI50 (SNB-75 CNS): > 100 µM
- TGI (SNB-75 CNS): > 100 µM
- GI50 (SR leukemia): > 100 µM
- TGI (SR leukemia): > 100 µM
- GI50 (UACC-257 melanoma): > 100 µM
- TGI (UACC-257 melanoma): > 100 µM

Structure (SMILES): COCCN1CCN(Cc2ccc(-c3n[nH]c4c3C(=O)c3c(NC(=O)NN5CCOCC5)cccc3-4)cc2)CC1
- GI50 (BT-549 breast): 0.0308 µM
- TGI (BT-549 breast): 0.209 µM
- GI50 (LOX IMVI melanoma): 0.0185 µM
- TGI (LOX IMVI melanoma): 0.12 µM
- GI50 (MALME-3M melanoma): 0.0705 µM
- GI50 (NCI-H522 lung): 0.0194 µM
- TGI (NCI-H522 lung): 0.0736 µM
- GI50 (OVCAR-3 ovarian): 0.0242 µM
- GI50 (OVCAR-5 ovarian): 0.0212 µM
- TGI (OVCAR-5 ovarian): > 4.7 µM
- GI50 (SK-MEL-28 melanoma): 0.0246 µM
- TGI (SK-MEL-28 melanoma): 0.471 µM
- GI50 (SNB-75 CNS): 0.0214 µM
- TGI (SNB-75 CNS): 0.071 µM
- GI50 (SR leukemia): 0.00985 µM
- TGI (SR leukemia): 0.0599 µM
- GI50 (UACC-257 melanoma): 0.0336 µM
- TGI (UACC-257 melanoma): 0.281 µM

Structure (SMILES): O=C(O)CCc1c2ccc(=O)c(O)c-2oc2c(O)c(O)ccc12
- TGI (BT-549 breast): > 100 µM
- TGI (LOX IMVI melanoma): 47.9 µM
- TGI (MALME-3M melanoma): > 100 µM
- TGI (NCI-H522 lung): > 100 µM
- TGI (OVCAR-3 ovarian): > 100 µM
- TGI (OVCAR-5 ovarian): > 100 µM
- TGI (SK-MEL-28 melanoma): > 100 µM
- TGI (SNB-75 CNS): > 100 µM
- TGI (SR leukemia): > 100 µM
- TGI (UACC-257 melanoma): > 100 µM

Structure (SMILES): Cc1[nH]nc2c1N=C(c1ccccc1F)c1cc(C(N)=O)ccc1N2
- GI50 (BT-549 breast): 2.9 µM
- TGI (BT-549 breast): 12.8 µM
- GI50 (LOX IMVI melanoma): 2.04 µM
- TGI (LOX IMVI melanoma): 13.2 µM
- GI50 (MALME-3M melanoma): 18.3 µM
- TGI (MALME-3M melanoma): > 25 µM
- GI50 (NCI-H522 lung): 2.19 µM
- TGI (NCI-H522 lung): > 19.6 µM
- GI50 (OVCAR-3 ovarian): 2.14 µM
- TGI (OVCAR-3 ovarian): > 20.1 µM
- GI50 (OVCAR-5 ovarian): 9.61 µM
- TGI (OVCAR-5 ovarian): > 22.3 µM
- GI50 (SK-MEL-28 melanoma): 5.79 µM
- TGI (SK-MEL-28 melanoma): > 24.1 µM
- GI50 (SNB-75 CNS): 0.0838 µM
- TGI (SNB-75 CNS): 1.69 µM
- GI50 (SR leukemia): 0.191 µM
- TGI (SR leukemia): 8.2 µM
- GI50 (UACC-257 melanoma): 9.15 µM
- TGI (UACC-257 melanoma): > 25 µM

Structure (SMILES): Oc1ccc(CCNCc2cc3c(cc2Br)OCO3)cc1
- TGI (BT-549 breast): > 100 µM
- TGI (LOX IMVI melanoma): > 100 µM
- TGI (MALME-3M melanoma): > 100 µM
- TGI (NCI-H522 lung): > 100 µM
- TGI (OVCAR-3 ovarian): > 100 µM
- TGI (OVCAR-5 ovarian): > 100 µM
- TGI (SK-MEL-28 melanoma): 98.2 µM
- TGI (SNB-75 CNS): 84.8 µM
- TGI (SR leukemia): > 100 µM
- TGI (UACC-257 melanoma): > 100 µM

Structure (SMILES): C/C(=N\N=C(\[Se])N(C)C)c1ccccn1
- TGI (BT-549 breast): 21.4 µM
- TGI (LOX IMVI melanoma): 12.8 µM
- TGI (MALME-3M melanoma): 9.35 µM
- TGI (NCI-H522 lung): 0.975 µM
- TGI (OVCAR-3 ovarian): 11.8 µM
- TGI (OVCAR-5 ovarian): 7.31 µM
- TGI (SK-MEL-28 melanoma): 18.9 µM
- TGI (SNB-75 CNS): 15.5 µM
- TGI (SR leukemia): 23.7 µM
- TGI (UACC-257 melanoma): 0.162 µM

Structure (SMILES): O=C1C(=O)c2ccccc2C(O)=C1CCCc1ccc(C2CCCCCC2)cc1
- GI50 (BT-549 breast): 1.14 µM
- TGI (BT-549 breast): 19.5 µM
- GI50 (LOX IMVI melanoma): 0.322 µM
- TGI (LOX IMVI melanoma): 10.5 µM
- GI50 (MALME-3M melanoma): 0.816 µM
- TGI (MALME-3M melanoma): 22.6 µM
- GI50 (NCI-H522 lung): 2.64 µM
- TGI (NCI-H522 lung): 32.7 µM
- GI50 (OVCAR-3 ovarian): 0.781 µM
- TGI (OVCAR-3 ovarian): 16.3 µM
- GI50 (OVCAR-5 ovarian): 19.8 µM
- TGI (OVCAR-5 ovarian): > 100 µM
- GI50 (SK-MEL-28 melanoma): 5.04 µM
- TGI (SK-MEL-28 melanoma): > 93.3 µM
- GI50 (SNB-75 CNS): 2.5 µM
- TGI (SNB-75 CNS): 52.2 µM
- GI50 (SR leukemia): 1.77 µM
- TGI (SR leukemia): > 100 µM
- GI50 (UACC-257 melanoma): 0.662 µM
- TGI (UACC-257 melanoma): > 23.3 µM

Structure (SMILES): CC(C)CC(Nc1c(O)ccc2ccccc12)C(=O)O (stereo not drawn)
- TGI (BT-549 breast): 83.6 µM
- TGI (LOX IMVI melanoma): > 100 µM
- TGI (MALME-3M melanoma): 39.2 µM
- TGI (NCI-H522 lung): > 100 µM
- TGI (OVCAR-3 ovarian): 62.1 µM
- TGI (OVCAR-5 ovarian): > 100 µM
- TGI (SK-MEL-28 melanoma): > 100 µM
- TGI (SNB-75 CNS): > 100 µM
- TGI (SR leukemia): > 100 µM
- TGI (UACC-257 melanoma): 50.3 µM

Structure (SMILES): NC(N)=Nc1nc2ccc([N+](=O)[O-])cc2[nH]1
- TGI (BT-549 breast): > 100 µM
- TGI (LOX IMVI melanoma): > 100 µM
- TGI (MALME-3M melanoma): > 100 µM
- TGI (NCI-H522 lung): > 100 µM
- TGI (OVCAR-3 ovarian): > 100 µM
- TGI (OVCAR-5 ovarian): > 100 µM
- TGI (SK-MEL-28 melanoma): > 100 µM
- TGI (SNB-75 CNS): > 100 µM
- TGI (SR leukemia): > 100 µM
- TGI (UACC-257 melanoma): > 100 µM
